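Results reflect a 48-hour exposure of cells in 96-well plates to compound at five concentrations. GI50 is the concentration that inhibits growth by half.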 Calls of active or inactive are those of the source. Rule as the data show it: active = GI50 up to about 1.1 µM and inactive = higher.
Columns and labels:
Experiment in all cases: DTP human tumour cell line panel, 48 h
[1] = system: A498
[2] = system: A549
[3] = system: ACHN
[4] = system: CCRF-CEM
[5] = system: EKVX
[6] = system: HCC 2998
[7] = system: HL-60
[8] = system: M14
[9] = system: MDA-MB-231
[10] = system: MOLT-4
[11] = system: NCI-H23
[12] = system: NCI-H522
[13] = system: RPMI-8226
[14] = system: SF-539
[15] = system: SNB-19
[16] = system: SNB-75
[17] = system: SW-620
[18] = system: TK-10
[19] = system: RXF 393

Measured: GI50

O=C(O)CCCc1nc2c(n1Cc1ccccc1)C(=O)c1ccccc1C2=O
inactive: [1] 34.4 µM | [2] 30.8 µM | [3] 45.2 µM | [4] 5.19 µM | [5] 31.6 µM | [6] 56.2 µM | [7] 29.1 µM | [8] 3.72 µM | [9] 47.9 µM | [10] 44.9 µM | [11] 31.6 µM | [12] 29.4 µM | [13] 18.7 µM | [14] 69.8 µM | [15] > 100 µM | [16] > 10 µM | [17] 40.6 µM | [18] > 100 µM

CC(C)(C)NNC(=O)/C(=C/c1ccc(Oc2ccc(Cl)c(Cl)c2)cc1)NC(=O)c1ccccc1
inactive: [1] > 100 µM | [2] > 100 µM | [3] > 100 µM | [4] 69.5 µM | [5] > 100 µM | [6] > 100 µM | [7] 40.5 µM | [8] > 100 µM | [10] 65 µM | [11] > 100 µM | [12] > 100 µM | [13] 22.1 µM | [19] > 100 µM | [14] > 100 µM | [15] > 100 µM | [16] > 100 µM | [18] > 100 µM

CCOC(=O)NC(=O)c1cn(CCCCCOC(=O)NCCCCCCNC(=O)OCCCCCn2cc(C(=O)NC(=O)OCC)c(=O)[nH]c2=O)c(=O)[nH]c1=O
inactive: [1] > 100 µM | [2] > 100 µM | [3] > 100 µM | [4] > 100 µM | [5] > 100 µM | [6] > 100 µM | [7] > 100 µM | [8] 31 µM | [10] > 100 µM | [12] > 100 µM | [13] > 100 µM | [19] > 100 µM | [14] > 100 µM | [15] > 100 µM | [16] > 100 µM | [17] > 100 µM

COC1CCC2C(NS(=O)(=O)c3ccc(C)cc3)CCCC2O1.Cc1ccc(S(=O)(=O)NC(C)(C)C=O)cc1 (stereo not given)
inactive: [1] > 34.5 µM | [2] 16.2 µM | [3] 24.8 µM | [4] 10.2 µM | [5] 31 µM | [6] 33.5 µM | [7] 8.18 µM | [8] 16.7 µM | [10] 8.3 µM | [11] 11.1 µM | [12] 9.02 µM | [13] 6.21 µM | [19] 11.4 µM | [14] 20 µM | [15] 16.1 µM | [16] 25 µM | [17] > 34.5 µM | [18] 18.1 µM

COC1OCC(O)C(NC(=O)N(C)N=O)C1O (stereo not given)
inactive: [1] > 100 µM | [2] > 100 µM | [4] > 100 µM | [5] > 100 µM | [6] > 100 µM | [10] > 100 µM | [11] > 100 µM | [12] > 100 µM | [13] > 100 µM | [19] > 100 µM | [14] > 100 µM | [15] > 100 µM | [16] > 100 µM | [17] > 100 µM

O=C(N/N=C/c1ccccc1O)N/N=C/c1ccccc1O
inactive: [1] > 100 µM | [2] > 100 µM | [3] > 100 µM | [4] > 100 µM | [5] > 100 µM | [6] > 100 µM | [7] > 100 µM | [8] > 100 µM | [10] > 100 µM | [11] > 100 µM | [12] > 100 µM | [13] > 100 µM | [19] > 100 µM | [14] > 100 µM | [15] > 100 µM | [16] > 100 µM | [17] > 100 µM | [18] > 100 µM

COC(=O)C(=O)C(C(=O)C(=O)Nc1ccc(Cl)cc1C)c1nc2ccc(C(=O)c3ccccc3)cc2nc1O (stereo not given)
inactive: [1] 21.6 µM | [2] > 100 µM | [3] 76.9 µM | [4] 50.6 µM | [5] > 100 µM | [6] 98.9 µM | [7] 96.6 µM | [8] > 100 µM | [10] 51.1 µM | [11] > 100 µM | [12] 37 µM | [13] > 100 µM | [19] 52.2 µM | [14] 58.5 µM | [15] > 100 µM | [16] 31.5 µM | [17] > 100 µM | [18] > 100 µM

C#CCOCCCC(=O)O
inactive: [1] > 100 µM | [2] > 100 µM | [3] > 100 µM | [4] > 100 µM | [5] > 100 µM | [7] > 100 µM | [8] > 100 µM | [9] > 100 µM | [10] > 100 µM | [11] > 100 µM | [13] > 100 µM | [19] > 100 µM | [14] > 100 µM | [15] > 100 µM | [16] > 100 µM | [17] > 100 µM | [18] > 100 µM

C[C@]12CC[C@H](OC3CCCCO3)CC1=CC[C@@H]1C2CC[C@]2(C)/C(=N/O)CCC12 (stereo not given in full)
inactive: [1] > 100 µM | [2] 18.5 µM | [3] 18.2 µM | [5] 23.7 µM | [6] 17.5 µM | [8] 21.4 µM | [10] 10.9 µM | [11] 19.9 µM | [12] 16.9 µM | [13] 10.6 µM | [19] 23.2 µM | [14] 47.1 µM | [15] 26.5 µM | [16] 20.5 µM | [17] 36.9 µM | [18] 30.5 µM

CC1c2c(Cl)nc3ccccc3c2Oc2c1c(Cl)nc1ccccc21
inactive: [1] > 100 µM | [2] 68.4 µM | [3] 51.5 µM | [4] > 100 µM | [5] 37.6 µM | [6] > 100 µM | [7] 29.6 µM | [10] 31.2 µM | [11] > 100 µM | [12] 43.8 µM | [13] 32.8 µM | [19] 41.3 µM | [14] > 100 µM | [15] > 100 µM | [16] 56 µM | [17] 99.5 µM | [18] 47.3 µM

CC(=O)c1ccc(NC(=O)C(=O)CC(=O)c2sc(-n3nc(-c4ccccc4)cc3-c3ccccc3)nc2C)cc1
inactive: [1] > 100 µM | [2] > 100 µM | [3] > 100 µM | [4] > 100 µM | [5] > 100 µM | [6] > 100 µM | [7] > 100 µM | [8] > 100 µM | [10] > 100 µM | [11] > 100 µM | [12] > 100 µM | [13] > 100 µM | [19] > 100 µM | [14] > 100 µM | [15] > 100 µM | [17] > 100 µM | [18] > 100 µM

CC1(C)COC(c2cccc(C(=O)c3ccccc3)c2)=N1
inactive: [2] 55.2 µM | [3] 64.4 µM | [4] 39.4 µM | [5] 34.9 µM | [6] 57.9 µM | [7] 18.6 µM | [9] 33.4 µM | [10] 24.5 µM | [11] 34.1 µM | [12] 16.8 µM | [13] 36.8 µM | [15] 51.4 µM | [17] > 100 µM | [18] 90.6 µM

Reference: ChEMBL document CHEMBL1201862, “PubChem BioAssay data set” (2004)
